The structures appear in SMILES notation. pIC50: −log10 of the molar value. Starred links: 1 amine or outer side, 2 acyl side, 3 side chain; linkers in the order of their positions; H or OH if unused. Residues, ends and D or L forms follow the SMILES beside them. CO = O=C([*:1])[*:2] Some results are limits rather than exact numbers.

In publication doi:10.1101/2021.01.04.425289v1 (biorxiv, 2021) one finds IC50 data, which are given here for two compounds.

The target in this assay is Furin (Homo sapiens, UniProt P09958). Put plainly: biochemical.
Sequence of Furin (P09958 whole entry): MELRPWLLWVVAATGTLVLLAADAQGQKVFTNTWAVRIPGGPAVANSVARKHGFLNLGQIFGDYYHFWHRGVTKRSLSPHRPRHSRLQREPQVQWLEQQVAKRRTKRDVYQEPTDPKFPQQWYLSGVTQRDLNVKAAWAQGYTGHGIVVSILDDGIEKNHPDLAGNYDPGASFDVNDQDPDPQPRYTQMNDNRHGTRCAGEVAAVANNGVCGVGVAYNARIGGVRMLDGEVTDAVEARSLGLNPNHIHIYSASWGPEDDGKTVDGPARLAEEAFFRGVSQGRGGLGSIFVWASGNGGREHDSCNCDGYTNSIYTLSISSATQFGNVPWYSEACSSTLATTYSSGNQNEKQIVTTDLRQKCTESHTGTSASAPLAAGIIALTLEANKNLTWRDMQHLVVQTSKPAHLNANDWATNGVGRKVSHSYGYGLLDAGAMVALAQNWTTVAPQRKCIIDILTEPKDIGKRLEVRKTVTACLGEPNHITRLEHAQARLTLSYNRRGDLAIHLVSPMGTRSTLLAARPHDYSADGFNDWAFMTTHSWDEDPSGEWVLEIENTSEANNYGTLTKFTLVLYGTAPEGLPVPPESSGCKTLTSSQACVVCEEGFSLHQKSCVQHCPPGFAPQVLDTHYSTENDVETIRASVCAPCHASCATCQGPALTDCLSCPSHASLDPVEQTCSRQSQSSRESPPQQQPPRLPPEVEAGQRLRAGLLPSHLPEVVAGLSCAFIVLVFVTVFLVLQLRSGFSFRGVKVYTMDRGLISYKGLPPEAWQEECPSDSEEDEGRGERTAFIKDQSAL

Take `CC(C)[C@H](NC(=O)[C@H](CCCNC(=N)N)NC(=O)N[C@@H](Cc1ccccc1)C(=O)O)C(=O)N[C@H](C=O)CCCNC(=N)N` [Antipain] ({Phe-CO}-Arg-Val-Arg-aldehyde): the pIC50 is under 5.00.

In turn, `CN(C)C(=O)COC(=O)Cc1ccc(OC(=O)c2ccc(NC(=N)N)cc2)cc1` [Camostat] gave a pIC50 of under 5.00.
